Results published in ChEMBL document CHEMBL1201862, “PubChem BioAssay data set” (2004).
Active and inactive are the calls of the source.

Key:
[1] = target: Induced myeloid leukemia cell differentiation protein Mcl-1 (Homo sapiens, UniProt Q07820); test: Mcl-1/Noxa binding inhibitor potency, dose response, biochemical, TR-FRET (AID 1417); assay type: functional
[2] = target: T1, Rac GTPase-activating protein 1 (Homo sapiens, UniProt Q9H0H5); test: MgcRacGAP GTPase-activating activity inhibitors, confirmation, biochemical, ADP Hunter fluorescence, primary and confirmatory (AID 624330); assay type: functional
T1 sequence (Q9H0H5 whole entry): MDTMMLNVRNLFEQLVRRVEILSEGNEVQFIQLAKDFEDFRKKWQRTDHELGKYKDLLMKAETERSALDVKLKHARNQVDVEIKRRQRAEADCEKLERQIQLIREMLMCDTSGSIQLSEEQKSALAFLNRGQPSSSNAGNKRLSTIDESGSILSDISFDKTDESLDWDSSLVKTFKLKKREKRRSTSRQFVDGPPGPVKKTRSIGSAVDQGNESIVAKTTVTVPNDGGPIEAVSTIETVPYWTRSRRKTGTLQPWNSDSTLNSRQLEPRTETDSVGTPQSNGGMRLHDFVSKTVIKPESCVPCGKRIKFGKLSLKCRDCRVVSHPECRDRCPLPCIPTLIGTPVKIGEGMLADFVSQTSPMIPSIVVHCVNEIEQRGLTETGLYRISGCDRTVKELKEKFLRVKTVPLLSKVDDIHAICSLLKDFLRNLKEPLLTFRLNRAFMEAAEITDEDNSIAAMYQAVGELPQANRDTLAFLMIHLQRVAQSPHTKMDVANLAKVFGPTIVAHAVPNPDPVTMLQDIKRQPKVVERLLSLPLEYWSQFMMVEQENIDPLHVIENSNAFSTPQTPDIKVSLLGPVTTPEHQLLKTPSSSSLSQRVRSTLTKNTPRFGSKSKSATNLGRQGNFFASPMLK

[3] = target: FAD-linked sulfhydryl oxidase ALR (Homo sapiens, UniProt P55789); test: inhibitors of human ALR sulfhydryl oxidase, dose response, biochemical, H2O2 detection, luminescence, cherry-pick (AID 493248)
[4] = target: 72 kDa type IV collagenase (Homo sapiens, UniProt P08253); test: Dose Response validation of uHTS RPN11 inhibitor hits using a MMP-2 Fluorescence assay.; assay type: functional
[5] = growth suppression of beta-catenin-knockout colon cells, dose response, cell-based, HCT116, human colon tumor (AID 1045); assay type: functional;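 note: HCT116 colon tumor cells with beta catenin knocked out; cells exposed to compound for 60 hours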
[6] = target: 26S proteasome non-ATPase regulatory subunit 14 (Homo sapiens, UniProt O00487); test: inhibition of proteasome subunit RPN11 – biochemical, fluorescence polarization, uHTS hits, confirmation (AID 602368); assay type: functional
[7] = growth suppression of PTEN-null colon cells, dose response, cell-based, HCT116 PTEN knockout (AID 1047); assay type: functional;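 note: HCT116 colon tumor cells with PTEN knocked out; cells exposed to compound for 60 hours before readout; potency for loss of cell viability measured by luminescence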
[8] = target: Prothrombin (Bos taurus, UniProt P00735); test: thrombin inhibition, dose response, biochemical, fluorescence polarization, uHTS hits (AID 602369); assay type: functional
[9] = target: T2, CAAX prenyl protease 2 (Saccharomyces cerevisiae S288c, UniProt Q03530); assay type: biochemical
T2 sequence (Q03530 whole entry): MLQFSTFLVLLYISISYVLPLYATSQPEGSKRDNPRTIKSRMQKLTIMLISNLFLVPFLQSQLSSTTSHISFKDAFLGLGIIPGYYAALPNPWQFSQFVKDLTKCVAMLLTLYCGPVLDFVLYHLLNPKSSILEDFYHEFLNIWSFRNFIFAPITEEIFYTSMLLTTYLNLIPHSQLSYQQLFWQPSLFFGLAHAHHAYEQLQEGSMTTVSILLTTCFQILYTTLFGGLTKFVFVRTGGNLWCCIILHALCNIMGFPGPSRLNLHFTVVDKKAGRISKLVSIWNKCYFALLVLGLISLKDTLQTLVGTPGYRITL

Induced myeloid leukemia cell differentiation protein Mcl-1, sequence (Q07820 whole entry): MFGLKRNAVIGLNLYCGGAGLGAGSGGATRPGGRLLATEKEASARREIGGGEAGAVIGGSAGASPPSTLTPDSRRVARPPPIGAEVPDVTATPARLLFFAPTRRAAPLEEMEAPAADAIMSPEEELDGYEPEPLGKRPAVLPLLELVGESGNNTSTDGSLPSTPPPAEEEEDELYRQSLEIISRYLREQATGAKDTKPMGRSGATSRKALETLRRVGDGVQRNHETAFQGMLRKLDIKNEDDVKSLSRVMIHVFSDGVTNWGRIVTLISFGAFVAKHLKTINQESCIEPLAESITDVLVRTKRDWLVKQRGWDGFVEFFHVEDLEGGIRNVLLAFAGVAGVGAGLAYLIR
26S proteasome non-ATPase regulatory subunit 14, sequence (O00487 whole entry): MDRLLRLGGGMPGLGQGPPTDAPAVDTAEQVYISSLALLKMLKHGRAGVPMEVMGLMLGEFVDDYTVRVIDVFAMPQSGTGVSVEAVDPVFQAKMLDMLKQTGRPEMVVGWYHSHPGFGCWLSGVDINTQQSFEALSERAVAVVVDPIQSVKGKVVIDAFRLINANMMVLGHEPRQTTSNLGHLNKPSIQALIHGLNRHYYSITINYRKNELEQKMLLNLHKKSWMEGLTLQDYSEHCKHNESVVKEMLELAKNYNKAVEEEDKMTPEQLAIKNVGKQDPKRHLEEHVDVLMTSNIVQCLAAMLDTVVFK
FAD-linked sulfhydryl oxidase ALR, sequence (P55789 whole entry): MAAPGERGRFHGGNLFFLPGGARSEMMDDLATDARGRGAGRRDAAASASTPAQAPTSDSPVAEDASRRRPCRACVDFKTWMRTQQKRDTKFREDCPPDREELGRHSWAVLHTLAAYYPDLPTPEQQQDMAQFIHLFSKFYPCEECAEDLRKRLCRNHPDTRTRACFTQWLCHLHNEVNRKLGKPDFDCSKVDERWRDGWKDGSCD
72 kDa type IV collagenase, sequence (P08253 whole entry): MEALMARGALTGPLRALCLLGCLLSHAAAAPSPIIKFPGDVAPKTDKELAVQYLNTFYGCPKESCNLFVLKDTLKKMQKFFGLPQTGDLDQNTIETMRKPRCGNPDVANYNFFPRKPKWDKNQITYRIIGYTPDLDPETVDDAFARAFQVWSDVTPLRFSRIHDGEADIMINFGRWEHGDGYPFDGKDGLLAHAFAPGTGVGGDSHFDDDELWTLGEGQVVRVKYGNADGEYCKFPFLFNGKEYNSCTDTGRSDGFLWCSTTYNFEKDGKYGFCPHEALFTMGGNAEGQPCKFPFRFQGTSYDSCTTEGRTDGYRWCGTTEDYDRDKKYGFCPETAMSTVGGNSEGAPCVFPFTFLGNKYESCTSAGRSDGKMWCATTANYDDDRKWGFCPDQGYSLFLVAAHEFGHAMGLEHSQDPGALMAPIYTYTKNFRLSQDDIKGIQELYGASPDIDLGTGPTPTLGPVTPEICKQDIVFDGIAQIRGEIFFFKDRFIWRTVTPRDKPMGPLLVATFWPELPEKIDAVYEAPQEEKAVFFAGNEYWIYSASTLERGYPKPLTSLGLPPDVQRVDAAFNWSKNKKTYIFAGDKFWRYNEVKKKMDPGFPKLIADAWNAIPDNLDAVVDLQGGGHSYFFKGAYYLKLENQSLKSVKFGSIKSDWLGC

Cc1ccc(S(=O)(=O)Nc2ccc(N(C)C)cc2)cc1
IC50 [1]: 10.7 µM (not active)
IC50 [2]: 33.1 µM (active)
AC50 [3]: 4.46 µM (active)

COc1ccc2nc(N3C(=O)/C(=C/c4ccc(Cl)cc4)NC3=S)sc2c1
IC50 [1]: 1.5 µM (active)
IC50 [4]: 33.5 µM (active)
EC50 [5]: 30.4 µM (active)
IC50 [6]: 13.3 µM (active)
EC50 [7]: 28.3 µM (active)
IC50 [8]: 53 µM (active)

Cc1cccc(NC(=O)C2(c3ccc([N+](=O)[O-])cc3)CCCC2)c1
AC50 [9]: 14 µM (active)

Cc1ccc(C(=O)OCC(=O)Nc2ccc(N(C)C)cc2)cc1NC(=O)c1ccco1
IC50 [1]: 3.67 µM (not active)
